Measured values from US20260098019A1, “SYNTHESIS OF NSAID CONJUGATES AS ANTI-INFLAMMATORY AGENTS USING THE MOLECULAR HYBRIDIZATION” (AUGUSTA UNIVERSITY RESEARCH INSTITUTE, INC., priority 2022, published 2026).
Read-outs that look alike come from different tables or passages of the source. Marks after values point to notes of the source that are not given here.

Key:
RAW264.7 macrophages = experiment: cell viability, MTT assay; type: cell-based; conditions: LPS-stimulated cells treated, FIG. 2B
Description: To ensure that the inflammatory response is not due to cell toxicity, cell viability measurements were done using MTT colorimetric assay. On the same cell cultured 96-well plate from the previous experiment, 100 μL of 1 mg/mL MTT solution was added to the adherent RAW264.7 macrophages cells at 37° C. and incubated for 2 h. After that, 100 μL of DMSO was added to the wells to dissolve insoluble formazan crystals. Absorbance was measured spectrophotometrically at 540 nm using a NanoSPECTROstar microplate reader (BMG LABTECH, Germany). Cell viability was then calculated as a percentage of untreated control.
Cytotoxicity of the macrophages was evaluated using MTT assay.

[1] = test system: acetic acid-induced writhing; experiment: acetic acid-induced writhing test (peripheral analgesic); type: in vivo, albino mice; conditions: for Potency: % inhibition/protection compared to indomethacin
Description: Peripheral analgesic activity was measured by the standard acetic acid-induced writhing test in mice. […] One hour after the i.p. administration, each mouse was injected with 0.1 ml of 1% acetic acid solution i.p. The control group animals were given sterile/distilled water with few drops of Tween 80. Starting 5 min after the acetic acid injection, the number of muscular contractions in each mouse was counted for 30 min. A significant reduction in the number of writhing by a conjugate compared with control animals was considered as a positive analgesic response. Percentage protection was calculated according to equ. (3), where n is the average number of writhing in the control group and n′ is the average number of writhing in the treated group. The % potency was calculated by equ. (4) (Table 2).

gastric mucosa [2] = experiment: ulcerogenic liability; conditions: for % Incidence of ulcer divided by 10 / Average of ulcer number / Average severity of ulcer / Number of animals with ulcer: three successive days, 10 mg/kg indomethacin mol equivalent; for Number of animals with ulcer: 6 animals
Description: (§2) The ulcerogenic liability of conjugates was determined in albino mice following a standard method. Animals of either sex (pregnant females were excluded) weighing 20-25 g were divided into 8 groups of 6 animals each. The animals fasted 18 h before drug administration. […] The control group animals were given water with a few drops of Tween 80. The animals were sacrificed by cervical dislocation and the stomach was removed, opened along the greater curvature, and rinsed with saline. The gastric mucosa was examined with a magnifying lens (10×) for the presence of lesions and erosions. The ulcer index was calculated (Table 4) and the degree of ulcerogenic effect was expressed in terms of: (1) the percentage incidence of ulcers divided by 10; (2) average number of ulcers per stomach; and (3) average severity of ulcers. The ulcer index is the value that resulted from the sum of the above three values.

hot plate latency = experiment: hot plate test (central analgesic); type: in vivo, albino mice; conditions: for % Protection: vs control; for Potency: at 120 min. compared to indomethacin; for Latency period ± SE: 10 mg/kg indomethacin mol equivalent i.p., cutoff 15 seconds
Description: An in vivo standard hot plate test was performed. […] The control group animals were given sterile/distilled water with few drops of Tween 80. The maximum cutoff time was 15 seconds to prevent tissue damage. Response latencies were measured at 30, 60, 90 and 120 inns. The % protection was calculated by equ. (5), where, Ti, To are the latency time mean of the tested compound and control group respectively (Table 3).

COX-1 = COX-1 (UniProt P05979); type: biochemical, human; conditions: ± SD
Source text: (§1) Rev. […] Thromb. Vasc. […] Rev. […] Rev. […] Rev. Oncol. Hematol. […] Curr. Pharm. Des. […] Luong, et al., Nat. Struct. […] A. and Marnett, L. J., Chem. Rev. […] Drug Discov. […] Biomol.

gastric mucosa [3] = conditions: mouse, in vivo
Description: as §2

COX-2 = biological target: T1, COX-2 (Homo sapiens, UniProt P35354); experiment: Inhibition of COX-2; type: biochemical; conditions: for SI: SI=IC50 (COX-1)/IC50 (COX-2); for IC50: ± SD
T1 construct: purchased BioVision Incorporated K547-100 and K548-100 (for COX-1/2)
T1 sequence (P35354 18-604): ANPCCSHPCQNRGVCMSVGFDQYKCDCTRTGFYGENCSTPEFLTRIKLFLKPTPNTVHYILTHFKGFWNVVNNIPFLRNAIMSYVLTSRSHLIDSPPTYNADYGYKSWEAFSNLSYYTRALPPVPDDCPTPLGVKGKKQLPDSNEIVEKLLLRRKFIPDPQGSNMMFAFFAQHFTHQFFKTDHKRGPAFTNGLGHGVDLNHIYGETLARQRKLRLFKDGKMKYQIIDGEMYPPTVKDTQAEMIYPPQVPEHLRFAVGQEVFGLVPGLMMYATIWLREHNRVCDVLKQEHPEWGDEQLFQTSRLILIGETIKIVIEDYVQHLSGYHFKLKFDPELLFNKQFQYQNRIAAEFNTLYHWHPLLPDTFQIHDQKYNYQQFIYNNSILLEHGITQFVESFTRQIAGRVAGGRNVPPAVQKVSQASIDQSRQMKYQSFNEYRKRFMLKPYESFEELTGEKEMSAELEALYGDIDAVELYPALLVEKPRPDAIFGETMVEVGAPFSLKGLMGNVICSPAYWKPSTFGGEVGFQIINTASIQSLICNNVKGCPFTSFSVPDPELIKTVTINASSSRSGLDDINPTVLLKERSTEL
Source text: as §1

toxicological bioassay = conditions: 50 mg/kg indomethacin mol equivalent (5 folds of anti-inflammatory dose); 24 h post-administration
Description: Albino mice weighing 20-25 g were divided into 6 groups of 6 mice each. […] The toxic symptoms and mortality rates were recorded 24 h post-administration in each group.
Five times of the anti-inflammatory dose was orally administrated.

[4] = test system: LPS-stimulated RAW264.7 macrophages; experiment: NO production (nitrite, Griess method) in LPS-stimulated RAW264.7; type: cell-based; conditions: LPS 10 ng/mL
Description: The Griess method was used to determine the nitrite concentration in cell culture medium. […] The next day, a volume of 150 μL of the cell supernatant was transferred to a new 96-well plate and 130 μL of deionized water was added on top of it. Lastly, a volume of 20 μL of Griess reagent was added to the cell supernatant and incubated for 30 min in the dark at room temperature. Griess reagent was prepared according to instructions: 1:1 ratio of N-1-naphthyl-ethylenediamine (0.1%) and phosphoric acid (5%) in sulphanilamide (1%) in distilled water. […] The concentration of nitrite was determined using a NaNO2 standard curve.
The nitrite production in the supernatant in the culture medium was measured using Greiss reaction.

COX-1, sequence (P05979 whole entry): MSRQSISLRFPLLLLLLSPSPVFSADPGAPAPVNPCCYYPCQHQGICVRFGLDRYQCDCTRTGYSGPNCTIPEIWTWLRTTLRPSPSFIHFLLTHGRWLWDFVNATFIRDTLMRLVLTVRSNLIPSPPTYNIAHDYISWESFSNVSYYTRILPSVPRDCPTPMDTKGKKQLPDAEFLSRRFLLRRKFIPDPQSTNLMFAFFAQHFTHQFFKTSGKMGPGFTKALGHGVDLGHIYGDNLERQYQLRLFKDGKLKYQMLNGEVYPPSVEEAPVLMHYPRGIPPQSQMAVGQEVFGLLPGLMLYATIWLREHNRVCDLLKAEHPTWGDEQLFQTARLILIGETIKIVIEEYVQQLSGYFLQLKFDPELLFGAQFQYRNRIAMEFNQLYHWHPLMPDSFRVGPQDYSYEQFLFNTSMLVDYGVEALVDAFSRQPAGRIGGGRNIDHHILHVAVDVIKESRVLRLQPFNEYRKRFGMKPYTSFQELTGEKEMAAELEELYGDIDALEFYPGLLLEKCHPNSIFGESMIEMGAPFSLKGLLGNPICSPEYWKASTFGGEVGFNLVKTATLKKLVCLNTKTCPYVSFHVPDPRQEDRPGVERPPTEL

Row | Structure (SMILES) | Potency [1] | % Incidence of ulcer divided by 10 (gastric mucosa [2]; oral) | Average of ulcer number (gastric mucosa [2]; oral) | Average severity of ulcer (gastric mucosa [2]; oral) | Number of animals with ulcer (gastric mucosa [2]; oral) | % Protection (hot plate latency; After 30 min.) | % Protection (hot plate latency; After 60 min.) | % Protection (hot plate latency; After 90 min.) | % Protection (hot plate latency; After 120 min.) | Potency (hot plate latency) | IC50 (COX-1) | SI (COX-2) | IC50 (COX-2) | further results
1 | COc1ccc2c(c1)c(CC(=O)O)c(C)n2C(=O)c1ccc(Cl)cc1 [Indo, indomethacin, reference compound] | 100.0% | 10 | 2 | 1.67 | 6/6 | (87.1) % | 1.6** (80.9) % | (57.9) % | (56.5) % | 100% | – | – | – | cytotoxicity (MTT) in comparison to control (RAW264.7 macrophages): no significant cytotoxicity; Potency ([1]; listed as indomethacin): 100%
2 | C#CCOC(=O)C(C)c1ccc(CC(C)C)cc1 (stereo not shown) [Compound 3, prop-2-yn-1-yl 2-(4-isobutylphenyl) propanoate] | 100.0% | – | – | – | – | (55.2) % | 2.1** (48.3) % | (19.2) % | (14.9) % | 26.4% | 19.4 ± 0.55 µM | 2.262 | 8.6 ± 0.24 µM | Writing reflex ± SE ([1]; number of writhing counted for 30 min, 10 mg/kg indomethacin mol equivalent i.p.): 11.3 ± 0.9; % Inhibition/protection ([1]; vs control, 10 mg/kg indomethacin mol equivalent i.p.): 71.8%; Ulcer index (gastric mucosa [3]): 4.33; % Incidence of ulcer divided by 10 (gastric mucosa [3]; po, 10 mg/kg): 3.33; Average of ulcer number (gastric mucosa [3]; po, 10 mg/kg): 0.33; Average severity of ulcer (gastric mucosa [3]; po, 10 mg/kg): 0.67; Number of animals with ulcer (gastric mucosa [3]; po, 10 mg/kg): 2/6; toxic symptoms and mortality (toxicological bioassay): No toxic symptoms or mortality; Latency period ± SE (hot plate latency; After 30 min.): 10.37 s; Latency period ± SE (hot plate latency; After 60 min.): 10.78 s; Latency period ± SE (hot plate latency; After 90 min.): 10.62 ± 2.2 s; Latency period ± SE (hot plate latency; After 120 min.): 10.35 ± 1.7 s
3 | COc1ccccc1-n1cc(COC(=O)C(C)c2ccc(CC(C)C)cc2)nn1 (stereo not shown) [Compound 5e, (1-(2-Methoxyphenyl)-1H-1,2,3-triazol-4-yl)methyl 2-(4-isobutylphenyl)propanoate] | – | 0 | 0 | 0 | 0 | – | – | – | – | – | 5.42 µM | 0.387 | 14 ± 0.4 µM | 1/(observed property) ([1]; 1/(% inhibition) peripheral analgesic): 0.0158; Observed property ([1]; % inhibition/protection peripheral analgesic): 63.3; ulcers or erosions to the gastric / ulcerogenic liability (in words) (gastric mucosa [2]; mice, oral): none and No ulcerogenic liability; Ulcer index (gastric mucosa [2]; sum of the three values): 0; decrease in NO production in comparison to LPS-stimulated cells (in words) [4]: insignificant decrease; Observed property (hot plate latency; % Protection central analgesic (120 min)): 28
